Data set [1] is described as follows: Characterization of salt form of compound A (properties of various salts, Table 8). It counts as physicochemical. The following applies: determined by the height of the strongest peak in XRPD.
Data set [2] in a line: in vivo. The following applies: male, SD, rat. As to the method: Test objective: by giving test compounds to SD rats via single-dose intravenous and intragastric administration and measuring the concentrations of the test compounds in plasma of rats, the pharmacokinetic characteristics and bioavailability of the test compounds in rats were evaluated.
Test animal: male SD rats, about 220 g, 6-8 weeks old, 6 rats/compound, purchased from Chengdu Ddossy Experimental Animals Co., Ltd.
Test method: on the day of the test, 6 SD rats were randomly grouped according to their body weight; the animals were fasted with water available for 12 to 14 h one day before the administration, and were fed 4 h after the administration; and the administration was performed according to Table 10.
Before and after the administration, 0.1 mL of blood samples were drawn from the orbits of the animals under isoflurane anaesthesia, and placed in an EDTAK2 centrifuge tube. Centrifugation was performed at 5000 rpm at 4° C. for 10 min, and plasma was collected.
Time points for sample collection in G1 and G2 groups comprise 0, 5 min, 15 min, 30 min, 1 h, 2 h, 4 h, 6 h, 8 h and 24 h.
Before analysis and detection, all samples were stored at −80° C.
30 μL of each of plasma samples, standard curve samples and quality control samples was taken, and 200 μL of acetonitrile solution containing an internal standard was added. The resulting mixture was homogeneously mixed by vortex and centrifuged at 4° C. at 12000 rpm for 10 min. 170 μL of the supernatant was taken and placed to a 96-well plate, and LC-MS/MS analysis was performed, wherein the sample size was 0.2 μL.
The main pharmacokinetic parameters were analysed by a non-compartmental model using WinNonlin 8.0 software.

By bioavailability is commonly meant dose-corrected exposure relative to a reference, in per cent. High values mean much systemic uptake, low ones little systemic uptake. Broadly, the AUC is the area under the concentration-time curve, a measure of exposure. As a reminder, the Cmax is the highest concentration seen after dosing. By half-life is commonly meant the time in which the quantity being followed falls by half. A higher half-life goes with slow decline. As usually defined, the Tmax is the time at which the peak concentration occurs.

Counter-ions that a name gives are not always drawn.

Regarding `C1=Cc2cccc(OC[C@H]3CNCCO3)c2C1.O=S(=O)(O)c1ccccc1` [Benzenesulfonate], the Crystallinity entry in data set [1] was “Relatively”.

In data set [2], `Cc1nnn([C@@H](c2ccccc2)C2CCN(C(=O)c3cc(-c4nc5cc(NC(=O)[C@@H]6C[C@@H]6F)ccc5o4)ccn3)CC2)n1` [Compound A, (1S,2S)-2-fluoro-N-(2-(2-(4-((R)-(5-methyl-2H-tetrazol-2-yl)(phenyl)methyl)piperidine-1-carbonyl)pyridin-4-yl)benzo[d]oxazol-5-yl)cyclopropane-1-carboxamide] gave a bioavailability of 26.1 ± 6.2%. In data set [2] (iv, 2 mg/kg), this molecule showed an AUC of 2010 ± 396 ng·h/mL, a Cmax of 1460 ± 134 ng/mL and a half-life of 0.897 ± 0.013 h. Besides, in data set [2] (po, 10 mg/kg), the AUC was 2610 ± 620 ng·h/mL, the highest level (Cmax) was 715 ± 127 ng/mL, the Tmax came out at 1.67 ± 0.58 h and the half-life is 1.04 ± 0.099 h.

On to `O=S(=O)(O)c1ccc2ccccc2c1` [Example 2-naphthalenesulfonate, 2-naphthalenesulfonate], for which the Crystallinity result in data set [1] is on record as “High”.

In the case of `Br` [Hydrobromide], in data set [1], the Crystallinity entry is listed as “High”.
